According to ChEMBL document CHEMBL4152252, “Fluorine walk: The impact of fluorine in quinolone amides on their activity against African sleeping sickness” (Eur J Med Chem, 2018):

Tests used:
[1] = Solubility of the compound in RPMI-1640 medium; type: physicochemical
[2] = Octanol/water partition co-efficient, log P of the compound by HPLC based method; type: physicochemical
[3] = test system: Trypanosoma brucei brucei; experiment: Antitrypanosomal activity against trypomastigote forms of Trypanosoma brucei brucei TC 221 assessed as parasite growth inhibition after 48 hrs by Alamar blue assay; type: functional, organism-based; conditions: TC 221, 48 h
[4] = Drug metabolism in rat liver cytosol assessed as CYP450-mediated 6-fluoro-3-(4-fluorobenzylcarbamoyl)-1-methyl-7-morpholino-4-oxo-1,4-dihydroquinolinium formation at 100 uM using NADPH/H+ as co-factor after 30 to 90 mins by LC/MSD iom trap method; type: ADME, subcellular
[5] = Drug metabolism in rat liver cytosol assessed as CYP450-mediated 6-fluoro-3-(4-fluorobenzylcarbamoyl)-7-morpholino-4-oxo-1,4-dihydroquinolinium formation at 100 uM using NADPH/H+ as co-factor after 30 to 90 mins by LC/MSD iom trap method; type: ADME, subcellular
[6] = Drug metabolism in rat liver microsomes assessed as CYP450-mediated 6-fluoro-3-(4-fluorobenzylcarbamoyl)-1-(3-hydroxybutyl)-7-morpholino-4-oxo-1,4-dihydroquinolinium formation at 100 uM using NADPH/H+ as co-factor after 30 to 90 mins by LC/MSD iom trap method; type: ADME
[7] = test system: Trypanosoma brucei brucei; experiment: Antitrypanosomal activity against trypomastigote forms of Trypanosoma brucei brucei TC 221 assessed as parasite growth inhibition after 72 hrs by Alamar blue assay; type: functional, organism-based; conditions: TC 221, 72 h
[8] = Drug metabolism in rat liver cytosol assessed as CYP450-mediated 1-butyl-3-carboxy-6-fluoro-7-morpholino-4-oxo-1,4-dihydroquinolinium formation at 100 uM using NADPH/H+ as co-factor after 30 to 90 mins by LC/MSD iom trap method; type: ADME, subcellular
[9] = Drug metabolism in rat liver microsomes assessed as CYP450-mediated 6-fluoro-3-(4-fluorobenzylcarbamoyl)-1-methyl-7-morpholino-4-oxo-1,4-dihydroquinolinium formation at 100 uM using NADPH/H+ as co-factor after 30 to 90 mins by LC/MSD iom trap method; type: ADME
[10] = Drug metabolism in rat liver cytosol assessed as CYP450-mediated 6-fluoro-3-(4-fluorobenzylcarbamoyl)-1-(3-hydroxybutyl)-7-morpholino-4-oxo-1,4-dihydroquinolinium formation at 100 uM using NADPH/H+ as co-factor after 30 to 90 mins by LC/MSD iom trap method; type: ADME, subcellular
[11] = Selectivity index, ratio of CC50 for mouse J774.1 cells to IC50 for trypomastigote forms of Trypanosoma brucei brucei TC 221 assessed as parasite growth inhibition after 48 hrs; type: toxicity; conditions: read-out: Ratio CC50/IC50
[12] = Drug metabolism in rat liver microsomes assessed as CYP450-mediated 6-fluoro-3-(4-fluorobenzylcarbamoyl)-7-morpholino-4-oxo-1,4-dihydroquinolinium formation at 100 uM using NADPH/H+ as co-factor after 30 to 90 mins by LC/MSD iom trap method; type: ADME
[13] = Half life in rat liver cytosol; type: ADME, subcellular
[14] = Cytotoxicity against mouse J774.1 cells after 24 hrs by Alamar blue assay; type: cell-based
[15] = Drug metabolism in rat liver microsomes assessed as CYP450-mediated 1-butyl-3-carboxy-6-fluoro-7-morpholino-4-oxo-1,4-dihydroquinolinium formation at 100 uM using NADPH/H+ as co-factor after 30 to 90 mins by LC/MSD iom trap method; type: ADME
[16] = Drug metabolism in rat liver microsomes assessed as CYP450-mediated 5-fluoro-3-(4-fluorobenzylcarbamoyl)-1-methyl-7-morpholino-4-oxo-1,4-dihydroquinolinium formation at 100 uM using NADPH/H+ as co-factor after 30 to 90 mins by LC/MSD iom trap method; type: ADME
[17] = Drug metabolism in rat liver microsomes assessed as CYP450-mediated 5-fluoro-3-(4-fluorobenzylcarbamoyl)-7-morpholino-4-oxo-1,4-dihydroquinolinium formation at 100 uM using NADPH/H+ as co-factor after 30 to 90 mins by LC/MSD iom trap method; type: ADME
[18] = Drug metabolism in rat liver microsomes assessed as CYP450-mediated 5-fluoro-3-(4-fluorobenzylcarbamoyl)-1-(3-hydroxybutyl)-7-morpholino-4-oxo-1,4-dihydroquinolinium formation at 100 uM using NADPH/H+ as co-factor after 30 to 90 mins by LC/MSD iom trap method; type: ADME
[19] = Drug metabolism in rat liver cytosol assessed as CYP450-mediated 5-fluoro-3-(4-fluorobenzylcarbamoyl)-7-morpholino-4-oxo-1,4-dihydroquinolinium formation at 100 uM using NADPH/H+ as co-factor after 30 to 90 mins by LC/MSD iom trap method; type: ADME, subcellular
[20] = Drug metabolism in rat liver microsomes assessed as CYP450-mediated 1-butyl-3-carboxy-5-fluoro-7-morpholino-4-oxo-1,4-dihydroquinolinium formation at 100 uM using NADPH/H+ as co-factor after 30 to 90 mins by LC/MSD iom trap method; type: ADME
[21] = Drug metabolism in rat liver cytosol assessed as CYP450-mediated 1-butyl-3-carboxy-5-fluoro-7-morpholino-4-oxo-1,4-dihydroquinolinium formation at 100 uM using NADPH/H+ as co-factor after 30 to 90 mins by LC/MSD iom trap method; type: ADME, subcellular
[22] = Drug metabolism in rat liver cytosol assessed as CYP450-mediated 5-fluoro-3-(4-fluorobenzylcarbamoyl)-1-(3-hydroxybutyl)-7-morpholino-4-oxo-1,4-dihydroquinolinium formation at 100 uM using NADPH/H+ as co-factor after 30 to 90 mins by LC/MSD iom trap method; type: ADME, subcellular
[23] = Drug metabolism in rat liver cytosol assessed as CYP450-mediated 5-fluoro-3-(4-fluorobenzylcarbamoyl)-1-methyl-7-morpholino-4-oxo-1,4-dihydroquinolinium formation at 100 uM using NADPH/H+ as co-factor after 30 to 90 mins by LC/MSD iom trap method; type: ADME, subcellular
[24] = Stability in rat liver cytosol assessed as compound turnover per mg protein; type: ADME, subcellular

## CCCCn1cc(C(=O)NCc2ccc(F)cc2)c(=O)c2cc(F)c(N3CCOCC3)cc21
[1]
  solubility: Insoluble
[2]
  logP: 4.13
[3]
  IC50: 50 nM
[4]
  Drug metabolism: Metabolite_Detected
[5]
  Drug metabolism: Metabolite_Detected
[6]
  Drug metabolism: Metabolite_Detected
[7]
  IC50: 90 nM
[8]
  Drug metabolism: Metabolite_Detected
[9]
  Drug metabolism: Metabolite_Detected
[10]
  Drug metabolism: Metabolite_Detected
[11]
  selectivity ratio at 48 h: > 400
[12]
  Drug metabolism: Metabolite_Detected
[13]
  half-life: 6.4 h
[14]
  CC50 at 24 h: > 20000 nM
[15]
  Drug metabolism: Metabolite_Detected

## CCCCn1cc(C(=O)NCc2ccc(F)cc2)c(=O)c2c(F)cc(N3CCOCC3)cc21
[1]
  solubility: Insoluble
[2]
  logP: 3.41
[3]
  IC50: 20 nM
[16]
  Drug metabolism: Metabolite_Detected
[17]
  Drug metabolism: Metabolite_Detected
[7]
  IC50: 20 nM
[18]
  Drug metabolism: Metabolite_Detected
[19]
  Drug metabolism: Metabolite_Detected
[20]
  Drug metabolism: Metabolite_Detected
[11]
  selectivity ratio at 48 h: > 1250
[21]
  Drug metabolism: Metabolite_Detected
[13]
  half-life: 7.7 h
[22]
  Drug metabolism: Metabolite_Detected
[23]
  Drug metabolism: Metabolite_Detected
[24]
  Drug metabolism: 3.89 pmol/min/mg protein
[14]
  CC50 at 24 h: > 25000 nM
